Measured values taken from ChEMBL document CHEMBL4251633, “Design, synthesis, biological evaluation and cocrystal structures with tubulin of chiral β-lactam bridged combretastatin A-4 analogues as potent antitumor agents” (Eur J Med Chem, 2018).
The source made the active and inactive calls. The rule behind the calls is not given here.

Legend:
[1] = Growth inhibition of HOSEC at 1 uM after 48 hrs by MTT assay relative to control; details: human, HOSEC cells; read-out: GI
[2] = Acute toxicity in ICR mouse assessed as death administered ip measured up to 14 days; format: organism-based; details: in vivo
[3] = Acute toxicity in ICR mouse assessed as survival rate at 150 mg/kg, ip measured on day 14 (reference value: 100%); format: organism-based; details: in vivo
[4] = system: HeLa; experiment: Induction of apoptosis in human HeLa cells assessed as necrotic cells at 50 nM after 48 hrs by Annexin V-FITC/propidium iodide staining based flow cytometry (reference value: 0.9%); format: functional
[5] = system: HeLa; experiment: Cell cycle arrest in human HeLa cells assessed as accumulation at G2/M-phase at 25 to 50 nM after 24 hrs by propidium iodide staining based flow cytometry; format: functional
[6] = system: A2780; experiment: cells; details: Homo sapiens, A2780, 48 h
Description: Antiproliferative activity against human A2780 cells after 48 hrs by MTT assay

[7] = system: HeLa; experiment: Cell cycle arrest in human HeLa cells assessed as accumulation at G2/M-phase at 50 nM after 24 hrs by propidium iodide staining based flow cytometry; format: functional
[8] = system: HeLa; experiment: Induction of apoptosis in human HeLa cells assessed as late apoptotic cells at 100 nM after 48 hrs by Annexin V-FITC/propidium iodide staining based flow cytometry (reference value: 2%); format: functional
[9] = system: HUVEC; experiment: Antiangiogenic activity against HUVEC assessed as disruption of capillary-like tube formation at 50 nM after 12 hrs by inverted microscopic method; format: functional, cell-based; details: Homo sapiens
[10] = system: Mus musculus; experiment: Acute toxicity in ICR mouse assessed as death at 100 to 125 mg/kg, ip measured after 1 day; format: organism-based; details: in vivo, 24 h
[11] = Acute toxicity in ICR mouse assessed as survival rate at 275 mg/kg, ip measured on day 14 (reference value: 100%); format: organism-based; details: in vivo
[12] = system: Mus musculus; experiment: Anti-vascular activity in Balb/c nude mouse assessed as inhibition of VEGF-induced capillary blood vessel formation by measuring reduction in hemoglobin level using sc injected matrigel plug supplemented with 100 nM test compound mixed with VEGF and measured after 1 week by matrigel plug assay; format: functional, organism-based

COc1ccc([C@H]2[C@H](C)C(=O)N2c2cc(OC)c(OC)c(OC)c2)cc1O
inhibition at 48 h, 1 µM [1]: < 50%
LD50 at 336 h [2]: 136 mg/kg
survival at 14 day [3]: 40%
Activity [4]: 5.3%
Activity [5]: Active
IC50 [6]: 2 nM
Activity [7]: 100%
Activity [8]: 29.9%
Activity [9]: Active
Activity [10]: Non-Toxic
survival at 14 day [11]: 10%
inhibition [12]: Active
